CO[C@@]1(NC(=O)CSCC#N)C(=O)N2C(C(=O)[O-])=C(CSc3nnnn3C)CS[C@@H]21.[Na+]
solubility (mole fraction)
Conditions | in cyclohexane | in ethanol | in ethyl acetate | in isopropanol | in n-butanol | in n-butyl acetate | in n-hexane | in n-pentanol | in n-propanol
278.15 K | 1.31e-06 | 0.000471 | 5.31e-05 | 6.74e-05 | 4.93e-05 | 3.86e-05 | 1.6e-06 | 3.1e-05 | 6.12e-05
283.15 K | 1.75e-06 | 0.000508 | 6.03e-05 | 7.58e-05 | 5.69e-05 | 4.39e-05 | 2.1e-06 | 3.94e-05 | 7.02e-05
288.15 K | 2.1e-06 | 0.000542 | 6.94e-05 | 8.93e-05 | 6.42e-05 | 5.19e-05 | 2.59e-06 | 4.82e-05 | 8.12e-05
293.15 K | 2.5e-06 | 0.000599 | 8.61e-05 | 0.000117 | 8.26e-05 | 6.35e-05 | 2.98e-06 | 5.84e-05 | 0.000105
298.15 K | 3.1e-06 | 0.000685 | 0.000105 | 0.00014 | 9.89e-05 | 7.49e-05 | 3.5e-06 | 6.75e-05 | 0.000125
303.15 K | 3.6e-06 | 0.000818 | 0.000137 | 0.00017 | 0.000124 | 8.96e-05 | 4.1e-06 | 8e-05 | 0.000153
308.15 K | 4.62e-06 | 0.00105 | 0.000168 | 0.00021 | 0.000152 | 0.000109 | 4.92e-06 | 9.75e-05 | 0.000191
313.15 K | 5.69e-06 | 0.00128 | 0.000221 | 0.000286 | 0.000196 | 0.000124 | 6e-06 | 0.000113 | 0.000244

Reference: BigSolDB 2.1
